Source: PubChem BioAssay (NCI)
Several values for one entry are separate records, joined by “and”; a condition that tells them apart may be missing. Equal values may be shown once.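 The compound was tested at five concentrations on cells cultured in 96-well plates, with a 48-hour exposure period. The concentration for 50% growth inhibition is given as GI50. The concentration for full growth arrest is given as TGI.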

How the values were obtained:
Test in all cases: NCI anticancer screen, dose series, 48 h
[1] = system: 786-0 renal
[2] = system: A498 renal
[3] = system: A549 NSCLC
[4] = system: ACHN renal
[5] = system: BT-549 breast
[6] = system: CAKI-1 renal
[7] = system: CCRF-CEM leukemia
[8] = system: COLO 205 colon
[9] = system: DU-145 prostate
[10] = system: EKVX NSCLC
[11] = system: HCC-2998 colon
[12] = system: HCT-116 colon
[13] = system: HCT-15 colon
[14] = system: HL-60(TB) leukemia
[15] = system: HOP-62 NSCLC
[16] = system: HOP-92 NSCLC
[17] = system: HS 578T breast
[18] = system: HT29 colon
[19] = system: IGROV1 ovarian
[20] = system: K-562 leukemia
[21] = system: KM12 colon
[22] = system: LOX IMVI melanoma
[23] = system: M14 melanoma
[24] = system: MALME-3M melanoma
[25] = system: MCF7 breast
[26] = system: MDA-MB-231 breast
[27] = system: MDA-MB-435
[28] = system: MOLT-4 leukemia
[29] = system: NCI-H226 lung
[30] = system: NCI-H23 lung
[31] = system: NCI-H460 lung
[32] = system: NCI-H522 lung
[33] = system: NCI/ADR-RES ovarian
[34] = system: OVCAR-3 ovarian
[35] = system: OVCAR-4 ovarian
[36] = system: OVCAR-5 ovarian
[37] = system: OVCAR-8 ovarian
[38] = system: PC-3 prostate
[39] = system: RPMI-8226 leukemia
[40] = system: RXF 393 renal
[41] = system: SF-268 CNS
[42] = system: SF-295 CNS
[43] = system: SF-539 CNS
[44] = system: SK-MEL-2 melanoma
[45] = system: SK-MEL-28 melanoma
[46] = system: SK-MEL-5 melanoma
[47] = system: SK-OV-3 ovarian
[48] = system: SN12C renal
[49] = system: SNB-19 CNS
[50] = system: SNB-75 CNS
[51] = system: SR leukemia
[52] = system: SW-620 colon
[53] = system: T-47D breast
[54] = system: TK-10 renal
[55] = system: U251 CNS
[56] = system: UACC-257 melanoma
[57] = system: UACC-62 melanoma
[58] = system: UO-31 renal

In the case of `O=c1[nH][nH]c(=O)c2c(O)c(-c3ccccc3)ncc12`, the GI50 [1] is reported as 19.4 µM and 26.7 µM, the TGI [1] is reported as 42.1 µM and 90.4 µM and the GI50 [2] is reported as 24.9 µM and 32.2 µM. For the same molecule, the TGI [2] was 61.7 µM and 119 µM, the GI50 [3] was 57.7 µM and 325 µM and the TGI [3] was 807 µM. For the same molecule, the GI50 [4] was 182 µM, the TGI [4] was 845 µM and the GI50 [5] was 32.9 µM and 47.4 µM. The TGI [5] was 357 µM, the GI50 [6] was 83.8 µM and 145 µM and the TGI [6] was 748 µM. For the same molecule, the GI50 [7] was 35.2 µM and 55.1 µM, the TGI [7] was 894 µM and the GI50 [8] was 41.6 µM and 130 µM. For the same molecule, the TGI [8] was 399 µM, the GI50 [9] was 58.5 µM and 144 µM and the TGI [9] was greater than 1000 µM. For the same molecule, the GI50 [10] was 228 µM, the TGI [10] was 939 µM and the GI50 [11] was 34.9 µM and 103 µM. For the same molecule, the TGI [11] was 642 µM, the GI50 [12] was 55 µM and 132 µM and the TGI [12] was 405 µM. For the same molecule, the GI50 [13] was 57.5 µM and 185 µM, the TGI [13] was greater than 1000 µM and the GI50 [14] was 74.4 µM and 174 µM. For the same molecule, the TGI [14] was 553 µM, the GI50 [15] was 27.9 µM and 86.9 µM and the TGI [15] was 87.3 µM and 471 µM. The GI50 [16] was 30.4 µM and 50.1 µM, the TGI [16] was 91.2 µM and 277 µM and the GI50 [17] was 40.3 µM and 40.2 µM. The TGI [17] was 672 µM, the GI50 [18] was 38.4 µM and 177 µM and the TGI [18] was 674 µM. For the same molecule, the GI50 [19] was 247 µM, the TGI [19] was 835 µM and the GI50 [20] was 219 µM. For the same molecule, the TGI [20] was greater than 1000 µM, the GI50 [21] was 34.2 µM and 53.1 µM and the TGI [21] was 482 µM. The GI50 [22] was 38.9 µM and 123 µM, the TGI [22] was 442 µM and the GI50 [23] was 32.8 µM and 63.3 µM. The TGI [23] was 385 µM, the GI50 [24] was 30.1 µM and 54.4 µM and the TGI [24] was 278 µM. The GI50 [25] was 47 µM and 199 µM, the TGI [25] was greater than 1000 µM and the GI50 [26] was 37.7 µM and 113 µM. For the same molecule, the TGI [26] was 385 µM, the GI50 [27] was 44.1 µM and 205 µM and the TGI [27] was greater than 1000 µM. For the same molecule, the GI50 [28] was 35 µM and 173 µM, the TGI [28] was greater than 1000 µM and the GI50 [29] was 25.2 µM and 135 µM. For the same molecule, the TGI [29] was 52.6 µM and 463 µM, the GI50 [30] was 75.9 µM and 194 µM and the TGI [30] was 827 µM. For the same molecule, the GI50 [31] was 55.6 µM and 146 µM, the TGI [31] was 634 µM and the GI50 [32] was 42.3 µM and 70.2 µM. For the same molecule, the TGI [32] was 376 µM, the GI50 [33] was 36.7 µM and 73.2 µM and the TGI [33] was 586 µM. For the same molecule, the GI50 [34] was 27.6 µM and 84 µM, the TGI [34] was 84.2 µM and 468 µM and the GI50 [35] was 46 µM and 110 µM. For the same molecule, the TGI [35] was 630 µM, the GI50 [36] was 60 µM and 160 µM and the TGI [36] was 832 µM. The GI50 [37] was 37 µM and 64.6 µM, the TGI [37] was 649 µM and the GI50 [38] was 44.5 µM and 143 µM. The TGI [38] was 662 µM, the GI50 [39] was 79.2 µM and 283 µM and the TGI [39] was 706 µM. For the same molecule, the GI50 [40] was 27.8 µM and 44.9 µM, the TGI [40] was 62 µM and 187 µM and the GI50 [41] was 35 µM and 71.3 µM. For the same molecule, the TGI [41] was greater than 1000 µM, the GI50 [42] was 40.7 µM and 69.3 µM and the TGI [42] was 800 µM. For the same molecule, the GI50 [43] was 32.6 µM, the TGI [43] was 95.1 µM and the GI50 [44] was 26 µM and 79.1 µM. For the same molecule, the TGI [44] was 67.3 µM and 373 µM, the GI50 [45] was 31.9 µM and 40.4 µM and the TGI [45] was greater than 1000 µM. The GI50 [46] was 45.8 µM and 175 µM, the TGI [46] was 357 µM and the GI50 [47] was 27.8 µM and 120 µM. The TGI [47] was 93.3 µM and 488 µM, the GI50 [48] was 62.6 µM and 160 µM and the TGI [48] was 623 µM. The GI50 [49] was 47.6 µM and 71.6 µM, the TGI [49] was 841 µM and the GI50 [50] was 35.4 µM and 37.6 µM. For the same molecule, the TGI [50] was 353 µM, the GI50 [51] was 39.6 µM and 118 µM and the TGI [51] was 554 µM. For the same molecule, the GI50 [52] was 45.8 µM and 188 µM, the TGI [52] was 891 µM and the GI50 [53] was 27.6 µM and 60.5 µM. For the same molecule, the TGI [53] was 95.5 µM and 843 µM, the GI50 [54] was 57 µM and 153 µM and the TGI [54] was 462 µM. For the same molecule, the GI50 [55] was 31.4 µM and 48.8 µM, the TGI [55] was 79.8 µM and 405 µM and the GI50 [56] was 46.2 µM and 272 µM. The TGI [56] was 871 µM, the GI50 [57] was 34.2 µM and 73.5 µM and the TGI [57] was 420 µM. The GI50 [58] was 37.4 µM and 129 µM and the TGI [58] was 622 µM.
